In publication doi:10.1101/2025.02.22.639610v1, “Excavating Podocyte-Protective Targets of phloroglucinol-terpene hybrids Utilizing AI Models and Omics Analysis” (biorxiv, 2025):
pIC50: −log10 of the molar value.

Target: T1, EGFR^WT kinase (Homo sapiens, UniProt P00533)
T1 construct: commercial wild-type EGFR kinase (Sigma Aldrich)
Assay: HTRF KinEASE-TK kinase assay
Assay type: biochemical

T1 sequence (P00533 25-1210): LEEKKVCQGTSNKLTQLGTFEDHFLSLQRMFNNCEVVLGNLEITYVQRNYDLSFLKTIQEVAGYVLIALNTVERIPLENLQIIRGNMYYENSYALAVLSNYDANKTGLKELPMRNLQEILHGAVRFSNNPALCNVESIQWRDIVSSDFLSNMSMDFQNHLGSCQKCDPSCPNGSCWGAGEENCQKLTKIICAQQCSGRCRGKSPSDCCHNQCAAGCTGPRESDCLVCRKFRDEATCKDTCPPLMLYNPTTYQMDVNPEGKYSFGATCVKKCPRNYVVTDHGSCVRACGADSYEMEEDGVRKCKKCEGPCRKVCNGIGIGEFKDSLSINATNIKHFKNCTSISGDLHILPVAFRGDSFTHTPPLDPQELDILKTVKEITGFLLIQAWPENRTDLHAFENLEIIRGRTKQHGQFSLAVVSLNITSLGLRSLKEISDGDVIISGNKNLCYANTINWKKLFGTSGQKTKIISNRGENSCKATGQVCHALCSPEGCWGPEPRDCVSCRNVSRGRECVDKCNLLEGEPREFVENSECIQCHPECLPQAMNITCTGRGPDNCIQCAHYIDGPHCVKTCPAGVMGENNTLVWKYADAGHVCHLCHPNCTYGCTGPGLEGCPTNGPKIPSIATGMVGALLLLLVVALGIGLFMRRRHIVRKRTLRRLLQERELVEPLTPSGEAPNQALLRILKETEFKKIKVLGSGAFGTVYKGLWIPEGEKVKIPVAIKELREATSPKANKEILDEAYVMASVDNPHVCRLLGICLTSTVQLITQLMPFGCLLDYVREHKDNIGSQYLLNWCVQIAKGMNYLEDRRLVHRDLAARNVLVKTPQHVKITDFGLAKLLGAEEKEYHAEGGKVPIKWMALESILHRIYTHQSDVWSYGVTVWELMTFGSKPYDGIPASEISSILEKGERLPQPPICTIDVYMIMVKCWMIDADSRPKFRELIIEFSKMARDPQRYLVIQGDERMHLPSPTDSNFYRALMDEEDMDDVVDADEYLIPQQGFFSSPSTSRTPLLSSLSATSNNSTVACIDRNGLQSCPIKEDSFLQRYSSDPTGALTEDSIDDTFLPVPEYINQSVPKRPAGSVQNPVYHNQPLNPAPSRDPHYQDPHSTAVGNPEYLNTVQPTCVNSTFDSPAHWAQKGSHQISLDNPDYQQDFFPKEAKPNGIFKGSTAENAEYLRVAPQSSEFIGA

C=C(C)[C@H]1C=C2[C@H](C)CC[C@H](Cc3c(O)c(C=O)c4c(c3O)C(=O)CC(C)(C)O4)[C@@]2(C)CC1 [R14, Eucarbwenstols D]
pIC50: 6.72
